The conditions of test [1]: Schreiner; independent of oxygen partial pressure; cited from earlier work.
The test system of the next test is particulate sialidase. The following applies: Sandhoff et al, FEBS Letters 1976; cited from earlier work.
Test [2] concerns Tyrosinase. The test can be described thus: Tyrosinase-L-tyrosine reaction, solution saturated with gas. The format is biochemical, Mushroom. As to the method: (§1) Solution preparation: Optimized w/v solutions are prepared by diluting the enzyme (units/ml) and the substrate (μg/ml) in appropriate buffer (optimized pH and molarity for enzymes). The solutions are used for gas experiments at once to avoid loss of activity. Various enzyme and substrate concentrations and inhibitors may be employed. Physical parameters are varied as required.
(§2) Preparation of samples: Cuvets are filled with 2 ml of substrate solution by means of a gas-tight syringe. Gas-tight serum vials are filled with enzyme and solvent. Sufficient gas is consecutively bubbled in the cuvets and serum vials, with a 1-hr wait between injections to maximize equilibration of gas. All syringes and dead spaces are purged before filling with the appropriate gas. The amount of gas used has been measured sufficient to saturate the solution required.
(§3) Spectrophotometric time-drive, reaction rate, and kinetic analyses: cuvets and serum vials are saturated with gas 40 minutes before the run. A gas-filled syringe is used to retrieve 0.5 ml of enzyme solution to avoid air contact. The 0.5 ml syringe injections of enzyme are made simultaneously to effect a common starting time to for the samples. 7 gases (air, O2, N2, Ne, Ar, Kr, Xe) are run at various temperatures each (from 0° to 60° ). Changes in the rate or final equilibrium of the reaction versus ambient air are recorded. Comparison is also made with added oxygen, and with deoxygenation. Some samples are also prepared under pressure.
1. Solution preparation: 10% w/v solutions are prepared by diluting the enzyme (units/ml) and the substrate (μg/ml) in Sodium Phosphate buffer (pH 6.85, optimized pH for enzymes). The solutions are stored in refrigerator (0°-5° C.) and used for gas experiments within 2 or 3 days to avoid loss of activity.
6. Preparation of run samples: Acrylic cuvets are filled with 2 ml of substrate solution by means of a gas tight syringe. Gastight serum vials are filled with enzyme. 3×10 cc of gas are consecutively bubbled in the cuvets and serum vials, with a […] between injections. This represents a 10× displacement of dead volume while maximizing equilibration of gas. All syringes and dead spaces are purged before filling with the appropriate gas. After the third 10 cc injection, the cuvets and serum vials are left overnight under two 10 cc syringes filled with the appropriate gas in refrigerator at 0°-5° C.
8. Spectrophotometric runs: The cuvets and serum vials are filled with 10 cc of gas 40 min before the run. A gas-filled syringe is used to retrieve 0.5 ml of enzyme solution to avoid air contact. The 0.5 ml syringe injections of enzyme are made simultaneously to effect a common starting time t0 for the samples. Seven gases (air, O2, N2, Ne, Ar, Kr, Xe) are run at five temperatures each (15° C., 20° C., 25° C., 30° C., 35° C.). Changes in the rate or final equilibrium of the reaction versus ambient air are recorded.
The optimal conditions are [E]/[S] (100 μg/ml)/(100 μg/ml), the changes in absorbance being observed at 305 nm.
3×10 cc of gas are bubbled in the silicone-sealed cuvets and serum vials (T-3754, T-7755), with an interval of 20 min (at 0°-5°C.) between each gas injection.
a. The silicone-sealed cuvets are removed from the refrigerator 40 min before the experimental run, filled with 10 cc of gas and left at room temperature (26° C.) under two 10 cc syringes.
The 0.5 ml syringe injections of enzyme are made simultaneously to effect a common starting time t0 for the samples.
200 points, 18 s intervals 1 hr run

The test system of test [3] is phenylalanine ammonia lyase. Description: Phenylalanine ammonia lyase activity under gas. The format is biochemical. The following applies: FIG. 32. As to the method: as §1, §2, §3
(§4) In a complete experiment, an enzyme at optimal pH and buffering salt concentration is reacted with 5 substrate concentrations in solution with noble gas at 1 atm. […] Controls are also run after evacuation of solution by vacuum. The reaction is monitored colorimetrically in a scanning spectrophotometer in real time, and the signals are treated mathematically to obtain rate and yield differences. Sample numbers are constant and sufficient to ensure significance of results. All parameters are independently controlled and measured, and more complex experiments are occasionally carried out.

The next test concerns the target Phosphoglucose isomerase (Homo sapiens, UniProt P06744). Description: Phosphoglucose isomerase activity under gas. Format: biochemical. The note with it: 25° C., FIG. 35. On the procedure: as §1, §2, §3, §4
Test [4] concerns tyrosinase. The test can be described thus: Oxygen addition experiment, tyrosinase. The format is biochemical. As to the method: as §4
A further test has as its system glucosidase. On the procedure: as §4
A further test relates to α-D-glucosidase. Description: α-D-glucosidase activity under gas. The format is biochemical. The following applies: FIG. 31. On the procedure:
Solution preparation: Optimized w/v solutions are prepared by diluting the enzyme (units/ml) and the substrate (μg/ml) in appropriate buffer (optimized pH and molarity for enzymes). The solutions are used for gas experiments at once to avoid loss of activity. Various enzyme and substrate concentrations and inhibitors may be employed. Physical parameters are varied as required. […] Gas-tight serum vials are filled with enzyme and solvent. Sufficient gas is consecutively bubbled in the cuvets and serum vials, with a 1-hr wait between injections to maximize equilibration of gas. All syringes and dead spaces are purged before filling with the appropriate gas. The amount of gas used has been measured sufficient to saturate the solution required. Spectrophotometric time-drive, reaction rate, and kinetic analyses: cuvets and serum vials are saturated with gas 40 minutes before the run. A gas-filled syringe is used to retrieve 0.5 ml of enzyme solution to avoid air contact. […] Changes in the rate or final equilibrium of the reaction versus ambient air are recorded. Comparison is also made with added oxygen, and with deoxygenation. Some samples are also prepared under pressure.

Each structure is given as a SMILES string. “Also recorded” adds a separate entry of the source.

As for `[N-]=[N+]=O` [nitrous oxide], the “inhibition per atmosphere of added gas” value in test [1] is on record as 1.9 % inhibition per atmosphere. Also, in the test on particulate sialidase, the “effect on activity of particulate sialidase” value was “enhance the activity”.
Regarding `O=O` [oxygen, reference compound], the “effect on tyrosinase-L-tyrosine reaction” value with Tyrosinase [2] (15° C.) is reported as “approximately the same effect”; with Tyrosinase [2] (20° C.), “only a moderate inhibitory effect; also recorded: little effect; also recorded: no enhancing effect; also recorded: does not enhance”; in the test on Tyrosinase [2] (30° C.), “inhibitory effect; also recorded: no longer enhances; also recorded: no enhancing effect”. Also, in the test on Tyrosinase [2] (various temperatures (15-35° C.)), the “temperature dependence of the effect on tyrosinase” value is “curves obtained with oxygen instead of air are identical; also recorded: saturates at 30 °C”. Besides, the “effect on phenylalanine ammonia-lyase” value in test [3] was “enhancement”. Moreover, the “effect on phosphoglucose isomerase” value on Phosphoglucose isomerase is reported as “inhibition”. Further, the “effect of oxygen on tyrosinase activity” value in the test on tyrosinase [4] (addition of a small amount oxygen) is given as “enhanced tyrosinase activity slightly”. Further, in the test on tyrosinase [4] (addition of oxygen to air), the “maximum increase in activity of tyrosinase” value amounted to 6%. Further, in the test with glucosidase, the “effect of adding oxygen to glucosidase reactions” value is “no observed effect”. Moreover, the “effect on α-D-glucosidase” value in the test with α-D-glucosidase was “enhancement”.
`FC(F)(F)C(Cl)Br` (centres unmarked) [halothane]: the “effect on activity of particulate sialidase” value in the test with particulate sialidase was “enhance the activity”.
Regarding `FS(F)(F)(F)(F)F` [SF6, sulfur hexafluoride, reference compound], the “effect on α-D-glucosidase” value with α-D-glucosidase is given as “enhancement”.

(Values after patent US5462861A, “Method for improving enzyme activities with noble gases” (American Air Liquide, Chicago Research Center, priority 1993, dated 1995).)
